# Test results reported in BindingDB's records for doi:10.1016/j.bioorg.2016.09.007 (Shaoyang University, 2016).
# Biological target: T1, Polyphenol oxidase 1 [61-568] (Agaricus bisporus, UniProt Q00024)
# T1 construct: 61-568
# T1 sequence (Q00024 whole entry): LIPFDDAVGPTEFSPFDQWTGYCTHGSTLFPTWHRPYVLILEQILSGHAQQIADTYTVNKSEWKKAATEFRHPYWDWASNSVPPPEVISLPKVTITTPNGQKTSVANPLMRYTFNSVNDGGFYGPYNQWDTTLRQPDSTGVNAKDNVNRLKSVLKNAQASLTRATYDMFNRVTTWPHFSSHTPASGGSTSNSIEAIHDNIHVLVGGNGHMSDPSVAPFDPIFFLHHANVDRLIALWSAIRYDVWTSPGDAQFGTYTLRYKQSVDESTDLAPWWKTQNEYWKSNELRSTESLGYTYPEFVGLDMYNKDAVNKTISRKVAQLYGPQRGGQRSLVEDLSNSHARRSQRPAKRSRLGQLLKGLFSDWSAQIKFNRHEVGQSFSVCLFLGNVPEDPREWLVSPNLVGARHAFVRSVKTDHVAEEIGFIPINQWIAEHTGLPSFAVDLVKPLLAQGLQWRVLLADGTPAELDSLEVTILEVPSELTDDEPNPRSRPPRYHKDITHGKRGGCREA
# Experiment: Tyrosinase Activity Assay
# Settings: pH 6.8
# Experimental: Briefly, 1,3,4-thiadiazole derivatives were tested for diphenolase inhibitory activity of tyrosinase using L-DOPA (dihydroxyphenylalanine) as substrate. All the compounds were dissolved in DMSO and its final concentration in the reaction mixture was 2.0%. Thirty units of mushroom tyrosinase (0.5 mg/ml) were first pre-incubated with the compounds, in 50 mM phosphate buffer (pH 6.8), for 10 min at 25 °C. Then the L-DOPA (0.5 mM) was added to the reaction mixture and the enzyme reaction was continuously monitored by measuring the change in absorbance at 475 nm of formation of the DOPA chrome for 1 min.
row,SMILES,IC50 [nM]
1,"COc1cc(OC)c(C=Nc2nnc(S)s2)c(OC)c1 [2-((2,4,6-Trimethoxybenzylidene)amino)-5-mercapto-1,3,4-thiadiazole (16)]",907
2,"Sc1nnc(N=Cc2ccc(Cl)c(Cl)c2)s1 [2-((3,4-Dichlorobenzylidene)amino)-5-mercapto-1,3,4-thiadiazole (5)]",3620
3,"COc1cc(C=Nc2nnc(S)s2)cc(OC)c1 [2-((3,5-Dimethoxybenzylidene)amino)-5-mercapto-1,3,4-thiadiazole (11)]",5350
4,"Sc1nnc(N=Cc2cccc(Cl)c2)s1 [2-((3-Chlorobenzylidene)amino)-5-mercapto-1,3,4-thiadiazole (3)]",4750
5,"CC(C)(C)c1ccc(C=Nc2nnc(S)s2)cc1 [2-((4-(Tert-butyl)benzylidene)amino)-5-mercapto-1,3,4-thiadiazole (8)]",1390
6,"Sc1nnc(N=Cc2ccc(Cl)cc2)s1 [2-((4-Chlorobenzylidene)amino)-5-mercapto-1,3,4-thiadiazole (4)]",2460
7,"Oc1ccc(Cl)cc1C=Nc1nnc(SCc2ccccc2)s1 [2-(((5-(Benzylthio)-1,3,4-thiadiazol-2-yl)imino)methyl)-4-chlorophenol (17)]",247000
8,"Oc1ccccc1C=Nc1nnc(S)s1 [2-(((5-Mercapto-1,3,4-thiadiazol-2-yl)imino)methyl)phenol (12)]",785
9,"Sc1nnc(N=Cc2ccccc2)s1 [2-(Benzylideneamino)-5-mercapto-1,3,4-thiadiazole (1)]",49200
10,"Oc1ccc(Br)cc1C=Nc1nnc(S)s1 [4-Bromo-2-(((5-mercapto-1,3,4-thiadiazol-2-yl)imino)methyl)phenol (7)]",1970
11,"Oc1ccc(Cl)cc1C=Nc1nnc(S)s1 [4-Chloro-2-(((5-mercapto-1,3,4-thiadiazol-2-yl)imino)methyl)phenol (6)]",1720

# More lines, now with the values ahead:
row,IC50 [nM],SMILES
1,765,"Fc1ccccc1C=Nc1nnc(S)s1 [2-((2-Fluorobenzylidene)amino)-5-mercapto-1,3,4-thiadiazole (2)]"
2,733,"COc1ccccc1C=Nc1nnc(S)s1 [2-((2-Methoxybenzylidene)amino)-5-mercapto-1,3,4-thiadiazole (10)]"
3,671,"O=[N+]([O-])c1ccccc1C=Nc1nnc(S)s1 [2-((2-Nitrobenzylidene)amino)-5-mercapto-1,3,4-thiadiazole (9)]"
4,473,"COc1cc(C=Nc2nnc(S)s2)cc(OC)c1O [4-(((5-Mercapto-1,3,4-thiadiazol-2-yl)imino)methyl)-2,6-dimethoxyphenol (15)]"
5,36,"COc1cc(C=Nc2nnc(S)s2)ccc1O [4-(((5-Mercapto-1,3,4-thiadiazol-2-yl)imino)methyl)-2-methoxyphenol (14)]"
6,255,"Oc1ccc(C=Nc2nnc(S)s2)c(O)c1 [4-(((5-Mercapto-1,3,4-thiadiazol-2-yl)imino)methyl)benzene-1,3-diol (13)]"
